pIC50: −log10 of the molar value.

Broadly, the pIC50 is the IC50 on a negative log10 scale, so that one unit is a factor of ten.

Assay [1] is described as follows: Inhibition of recombinant rat/human ADAMTS7 hybrid using HiLyteFluor-488 DELSSMVLELRGLRT-K(QXL520)-E-NH2 as substrate incubated for 120 mins and measured by FRET assay.
The nature of assay [2]: Inhibition of recombinant rat/human ADAMTS12 hybrid using HiLyteFluor-488 DELSSMVLELRGLRT-K(QXL520)-E-NH2 as substrate incubated for 120 mins and measured by FRET assay.

Regarding `N#Cc1ccc(-n2ncc(C(=O)NC[C@@]3(C4CC4)NC(=O)NC3=O)n2)cc1`, the values for the pIC50 in assay [1] and in assay [2] were 7.40 and 4.77, respectively.
On to `O=C1NC(=O)[C@](CNC(=O)c2cnn(-c3ccc(C(F)(F)F)c(F)c3)n2)(C2CC2)N1`, for which the negative-log IC50 (pIC50) in assay [1] was 6.92; in assay [2], 5.34.
For `O=C1NC(=O)[C@](CNC(=O)c2coc(-c3ccc(F)cc3)n2)(C2CC2)N1`, the figures for the pIC50 in assay [1] and in assay [2] were 7.26 and 5.77, respectively.
For `O=C1NC(=O)[C@](CNC(=O)c2cnn(-c3ccc(Cl)cc3F)n2)(C2CC2)N1` the same measures were 7.22 and 6.00.
For `O=C1NC(=O)[C@](CNC(=O)c2cnn(-c3ccccc3F)n2)(C2CC2)N1` the same measures were 6.74 and 5.12.
Consider `O=C1NC(=O)[C@](CNC(=O)c2cnn(-c3cc(F)ccc3F)n2)(C2CC2)N1`, for which the values for the negative-log IC50 (pIC50) in assay [1] and in assay [2] were 6.96 and 5.26, respectively.
For the compound `O=C1NC(=O)[C@](CNC(=O)c2cnn(-c3ccccn3)n2)(C2CC2)N1`, the pIC50 was 7.01 in assay [1] and 5.12 in assay [2].
For `O=C1NC(=O)C(CNC(=O)c2cnn(-c3ccc(F)c(F)c3)n2)(C2CCC2)N1` (stereo not given) the same measures were 8.22 and 6.05.
For `O=C1NC(=O)[C@](CNC(=O)c2cnn(-c3ncc(F)cc3F)n2)(C2CC2)N1` the same measures were 6.72 and 5.21.
For `COc1ccc(-n2ncc(C(=O)NC[C@@]3(C4CC4)NC(=O)NC3=O)n2)cc1` the same measures were 7.00 and 5.22.
Turning to `O=C1NC(=O)[C@](CNC(=O)c2cnn(-c3nc4ccccc4s3)n2)(C2CC2)N1`, the values for the pIC50 in assay [1] and in assay [2] were 6.72 and 4.96, respectively.
Regarding `Cc1cccc(-n2ncc(C(=O)NC[C@@]3(C4CC4)NC(=O)NC3=O)n2)c1`, the negative-log IC50 (pIC50) was 6.77 in assay [1] and 5.66 in assay [2].
As to `O=C1NC(=O)[C@](CNC(=O)c2cnn(-c3ccc(F)cc3Cl)n2)(C2CC2)N1`, the pIC50 in assay [1] was 6.49; in assay [2], 4.77.
For `O=C1NC(=O)[C@](CNC(=O)c2cnn(-c3ccccc3)c2)(C2CC2)N1` the same measures were 6.89 and 5.74.
For `O=C1NC(=O)[C@](CNC(=O)c2nnc(-c3ccc(F)cc3)o2)(C2CC2)N1` the same measures were 6.46 and 4.92.
For `O=C1NC(=O)C(CNC(=O)c2cnn(-c3ccc(F)cc3)n2)(C2CCCCC2)N1` (stereo not given) the same measures were 7.85 and 5.39.
With `O=C1NC(=O)C(CNC(=O)c2cnn(-c3ccc(F)cc3)n2)(c2cscn2)N1` (stereo not given), the pIC50 was 7.92 in assay [1] and 5.60 in assay [2].
For `Cn1cc(-c2cc(C(=O)NC[C@@]3(C4CC4)NC(=O)NC3=O)on2)cn1` the same measures were 7.28 and 5.33.
For `O=C1NC(=O)[C@](CNC(=O)c2cnn(-c3ccc(F)cc3)n2)(C2CC2)N1`, the negative-log IC50 (pIC50) was 7.59 in assay [1] and 5.85 in assay [2].
For `CC(CO)C1(CNC(=O)c2cnn(-c3ccccc3)n2)NC(=O)NC1=O` (stereo not given) the same measures were 6.72 and 4.77.
Take `O=C1NC(=O)[C@](CNC(=O)c2cc(-c3cnn(CC4CC4)c3)no2)(C2CC2)N1`: the figures for the pIC50 in assay [1] and in assay [2] were 6.26 and 4.30, respectively.
For `O=C1NC(=O)[C@](CNC(=O)c2cnn(-c3ccc(Cl)c(Cl)c3)n2)(C2CC2)N1` the same measures were 7.46 and 6.04.
For `CS(=O)(=O)c1ccc(-n2ncc(C(=O)NC[C@@]3(C4CC4)NC(=O)NC3=O)n2)cc1` the same measures were 6.06 and 4.17.
For `Cn1ccnc1C1(CNC(=O)c2cnn(-c3ccc(F)c(F)c3)n2)NC(=O)NC1=O` (stereo not given) the same measures were 8.52 and 7.34.
Take `O=C1NC(=O)C(CNC(=O)c2nc(-c3ccccc3)no2)(CC2CC2)N1` (stereo not given): the figures for the pIC50 in assay [1] and in assay [2] were 6.60 and 5.54, respectively.
For `C[C@@H](NC(=O)c1cnn(-c2ccccc2)n1)C1(C2CC2)NC(=O)NC1=O` (stereo not given in full) the same measures were 6.15 and 4.30.
For `O=C1NC(=O)C(CNC(=O)c2cnn(-c3ccc(Cl)cc3)n2)(C2CCC2)N1` (stereo not given) the same measures were 8.00 and 6.01.
For `O=C1NC(=O)[C@](CNC(=O)c2cnn(-c3cnsc3)n2)(C2CC2)N1` the same measures were 6.64 and 5.13.
Turning to `O=C1NC(=O)[C@](CNC(=O)c2cnn(-c3ccc(Cl)cc3Cl)n2)(C2CC2)N1`, the pIC50 in assay [1] is 6.89; in assay [2] it was 5.15.
Take `O=C1NC(=O)C(CNC(=O)c2cnn(-c3cccc(Cl)c3)n2)(C2CCC2)N1` (stereo not given): the negative-log IC50 (pIC50) in assay [1] was 7.32; in assay [2], 5.66.
For `O=C1NC(=O)[C@](CNC(=O)c2cnn(-c3cccc(F)c3)n2)(C2CC2)N1` the same measures were 7.89 and 6.24.
Consider `Cc1ccccc1-n1ncc(C(=O)NC[C@@]2(C3CC3)NC(=O)NC2=O)n1`, for which the pIC50 was 6.01 in assay [1] and 4.92 in assay [2].
For `O=C1NC(=O)[C@](CNC(=O)c2cnn(-c3ccc(F)c(Cl)c3)n2)(C2CC2)N1` the same measures were 8.30 and 6.60.
For `O=C1NC(=O)[C@](CNC(=O)c2cnn(-c3ccccc3Cl)n2)(C2CC2)N1` the same measures were 6.33 and 5.00.
Turning to `CC(C)(C)CC1(CNC(=O)c2cnn(-c3ccccc3)n2)NC(=O)NC1=O` (stereo not given), the figures for the pIC50 in assay [1] and in assay [2] were 6.60 and 5.30, respectively.
For `O=C1NC(=O)[C@](CNC(=O)c2cnn(-c3cc(F)c(F)c(F)c3)n2)(C2CC2)N1` the same measures were 7.60 and 5.96.
For `O=C1NC(=O)C(CNC(=O)c2cnn(-c3ccc(Cl)c(F)c3)n2)(C2CCC2)N1` (stereo not given) the same measures were 8.22 and 6.01.
Consider `O=C1NC(=O)C(CNC(=O)c2cnn(-c3cccc(F)c3)n2)(C2CCC2)N1` (stereo not given), for which the pIC50 was 8.10 in assay [1] and 5.66 in assay [2].
In the case of `O=C1NC(=O)[C@](CNC(=O)c2cnn(-c3ccccc3)n2)(C2CC2)N1`, the pIC50 in assay [1] was 7.16; in assay [2] it was 5.84.
For `Cc1ccc(-n2ncc(C(=O)NC[C@@]3(C4CC4)NC(=O)NC3=O)n2)cc1` the same measures were 7.33 and 6.02.
For `O=C1NC(=O)[C@](CNC(=O)c2cnn(-c3ccc(Br)cc3)n2)(C2CC2)N1` the same measures were 7.24 and 5.85.
For `O=C1NC(=O)[C@](CNC(=O)c2cnn(-c3ccc(F)cn3)n2)(C2CC2)N1` the same measures were 6.85 and 5.32.
Consider `O=C1NC(=O)C(CNC(=O)c2cnn(-c3cc(F)c(F)c(F)c3)n2)(C2CCC2)N1` (stereo not given), for which the pIC50 in assay [1] is 7.80; in assay [2] it was 5.51.
On to `O=C1NC(=O)[C@](CNC(=O)c2cnn(-c3ncccc3F)n2)(C2CC2)N1`, for which the negative logarithm of the IC50 (pIC50) in assay [1] is 8.15; in assay [2], 4.85.
For `O=C1NC(=O)[C@](CNC(=O)c2cnn(-c3cccc(Cl)c3)n2)(C2CC2)N1` the same measures were 7.68 and 6.35.
For `O=C1NC(=O)[C@](CNC(=O)c2cnn(-c3ccc(F)cc3F)n2)(C2CC2)N1` the same measures were 7.39 and 5.37.
For `O=C1NC(=O)[C@](CNC(=O)c2cnn(-c3ccc(Cl)c(F)c3)n2)(C2CC2)N1` the same measures were 7.92 and 6.30.
As for `O=C1NC(=O)C(CNC(=O)c2cnn(-c3ccc(F)cc3F)n2)(C2CCC2)N1` (stereo not given), the pIC50 in assay [1] was 7.20; in assay [2] it was 5.07.
For `N#Cc1cccc(-n2ncc(C(=O)NC[C@@]3(C4CC4)NC(=O)NC3=O)n2)c1` the same measures were 7.49 and 6.22.
For `O=C1NC(=O)C(CNC(=O)c2cnn(-c3ccc(F)c(F)c3)n2)(c2nccs2)N1` (stereo not given) the same measures were 8.15 and 6.51.
With `Cn1ccnc1C1(CNC(=O)c2cnn(-c3ccc(Cl)c(F)c3)n2)NC(=O)NC1=O` (stereo not given), the pIC50 was 8.70 in assay [1] and 7.39 in assay [2].
For `O=C1NC(=O)[C@](CNC(=O)c2cnn(-c3ccc(Cl)cc3)n2)(C2CC2)N1` the same measures were 7.59 and 6.32.
For the compound `O=C1NC(=O)[C@](CNC(=O)c2cnn(-c3ccc(OC(F)(F)F)cc3)n2)(C2CC2)N1`, the pIC50 in assay [1] is 6.72; in assay [2], < 4.30.
For `C[C@H](NC(=O)c1cnn(-c2ccccc2)n1)C1(C2CC2)NC(=O)NC1=O` (stereo not given in full) the same measures were 6.01 and 4.60.
For `O=C1NC(=O)[C@](CNC(=O)c2cnn(-c3cnccn3)n2)(C2CC2)N1` the same measures were 6.45 and 4.62.
For `O=C1NC(=O)[C@](CNC(=O)c2cnn(-c3cccc(F)c3F)n2)(C2CC2)N1` the same measures were 7.13 and 5.51.
As for `N#Cc1cccc(-n2ncc(C(=O)NCC3(C4CCC4)NC(=O)NC3=O)n2)c1` (stereo not given), the pIC50 is 7.11 in assay [1] and 5.40 in assay [2].
For `O=C1NC(=O)C(CNC(=O)c2cnn(-c3ccc(F)c(Cl)c3)n2)(C2CCC2)N1` (stereo not given) the same measures were 7.74 and 5.74.
For `O=C1NC(=O)[C@](CNC(=O)c2cnc(-c3ccccc3)o2)(C2CC2)N1` the same measures were 6.26 and 4.95.
For `CC(C)C1(CNC(=O)c2cnn(-c3ccc(F)c(Cl)c3)n2)NC(=O)NC1=O` (stereo not given) the same measures were 6.72 and 4.92.
In the case of `O=C1NC(=O)[C@](CNC(=O)c2cnn(-c3ccc(F)c(F)c3)n2)(C2CC2)N1`, the values for the negative-log IC50 (pIC50) in assay [1] and in assay [2] were 8.15 and 6.76, respectively.
Turning to `Cn1ccnc1C1(CNC(=O)c2cnn(-c3ccccc3)n2)NC(=O)NC1=O` (stereo in doubt), in assay [2], the pIC50 was 6.49.
On to `CC(C)C1(CNC(=O)c2cnn(-c3ccc(F)cc3F)n2)NC(=O)NC1=O` (stereo in doubt), for which the pIC50 in assay [2] was 4.89.
On the same count and under the same terms, the value for `O=C1NC(=O)C(CNC(=O)c2cnn(-c3ccc(F)cc3)n2)(c2ccccn2)N1` (stereo in doubt; form 1) was 5.72.
